Source: patent US20190374533A1, “COMPOUNDS AND METHODS FOR INHIBITING NHE-MEDIATED ANTIPORT IN THE TREATMENT OF DISORDERS ASSOCIATED WITH FLUID RETENTION OR SALT OVERLOAD AND GASTROINTESTINAL TRACT DISORDERS” (Ardelyx, Inc., priority 2008, published 2019)

Molecular target: T1, rat NHE-3 (Rattus norvegicus, UniProt P26433)
T1 construct: expressed in transfected cells; host or cells: Opossum kidney (OK) cells (ATCC), electroporated
Test: Cell-based assay of NHE-3 activity (Pharmacological Test Example 1)
Conditions: OK cells expressing rat NHE-3, 0-30 uM test compound, 5 uM EIPA; for IC50: read-out: rat NHE-3 Average pIC50 (converted)
Protocol: Rat NHE-3-mediated Na^+-dependent H^+ antiport was measured using a modification of the pH sensitive dye method originally reported by Tsien (Proc. Natl. Acad. Sci. USA. (1984) 81(23): 7436-7440). Opossum kidney (OK) cells were obtained from the ATCC and propagated per their instructions. The rat NHE-3 gene was introduced into OK cells via electroporation, seeded into 96 well plates and grown overnight. Medium was aspirated from the wells, cells were washed twice with NaCl-HEPES buffer (100 mM NaCl, 50 mM HEPES, 10 mM glucose, 5 mM KCl, 2 mM CaCl2, 1 mM MgCl2, pH 7.4), then incubated for 30 min at room temperature with NH4Cl-HEPES buffer (20 mM NH4Cl, 80 mM NaCl, 50 mM HEPES, 5 mM KCl, 2 mM CaCl2), 1 mM MgCl2, pH 7.4) containing 5 uM BCECF-AM (Invitrogen). Cells were washed twice with Ammonium free, Nat-free HEPES (100 mM choline, 50 mM HEPES, 10 mM glucose, 5 mM KCl, 2 mM CaCl2), 1 mM MgCl2, pH 7.4) and incubated in the same buffer for 10 minutes at room temperature to lower intracellular pH. […] Initial rates were plotted as the average 3-6 replicates, and pIC50 values were estimated using GraphPad Prism.

T1 sequence (P26433 29-831): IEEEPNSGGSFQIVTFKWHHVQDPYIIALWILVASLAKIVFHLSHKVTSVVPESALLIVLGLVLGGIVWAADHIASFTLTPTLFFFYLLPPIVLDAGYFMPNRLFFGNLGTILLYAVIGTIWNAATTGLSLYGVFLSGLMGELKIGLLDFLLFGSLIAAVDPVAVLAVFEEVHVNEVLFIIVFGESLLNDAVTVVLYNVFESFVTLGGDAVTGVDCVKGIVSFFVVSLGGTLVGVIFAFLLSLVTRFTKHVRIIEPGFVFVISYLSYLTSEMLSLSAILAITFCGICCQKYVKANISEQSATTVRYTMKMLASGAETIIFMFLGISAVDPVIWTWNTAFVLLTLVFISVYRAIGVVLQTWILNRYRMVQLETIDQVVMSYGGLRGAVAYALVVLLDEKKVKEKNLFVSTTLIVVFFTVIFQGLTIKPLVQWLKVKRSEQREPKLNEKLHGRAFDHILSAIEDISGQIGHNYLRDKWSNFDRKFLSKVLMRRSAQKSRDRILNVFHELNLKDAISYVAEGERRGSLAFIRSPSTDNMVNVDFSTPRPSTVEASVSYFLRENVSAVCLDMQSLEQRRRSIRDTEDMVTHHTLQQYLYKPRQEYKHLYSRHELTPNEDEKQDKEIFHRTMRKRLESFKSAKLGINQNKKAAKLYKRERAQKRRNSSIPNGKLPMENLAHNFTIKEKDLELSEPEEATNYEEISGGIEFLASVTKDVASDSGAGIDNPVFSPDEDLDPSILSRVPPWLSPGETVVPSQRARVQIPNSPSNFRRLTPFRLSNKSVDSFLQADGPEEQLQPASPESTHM

CN1Cc2c(Cl)cc(Cl)cc2C(c2cccc(S(=O)(=O)NCCOCCOCCNC(=O)COCC(=O)NCCOCCOCCNS(=O)(=O)c3cccc(C4CN(C)Cc5c(Cl)cc(Cl)cc54)c3)c2)C1 (stereo not shown) [Example 195, 2,2′-oxybis(N-(2-(2-(2-(3-(6,8-dichloro-2-methyl-1,2,3,4-tetrahydroisoquinolin-4-yl)phenylsulfonamido)ethoxy)ethoxy)ethyl)acetamide)]
rat NHE-3 Average pIC50: >7

CN1Cc2c(Cl)cc(Cl)cc2C(c2cccc(S(=O)(=O)NCCOCCOCCOCCNC(=O)CCCCCCC(=O)NCCOCCOCCOCCNS(=O)(=O)c3cccc(C4CN(C)Cc5c(Cl)cc(Cl)cc54)c3)c2)C1 (stereo not shown) [Example 29, N1,N8-bis(2-(2-(2-(2-(3-(6,8-dichloro-2-methyl-1,2,3,4-tetrahydroisoquinolin-4-yl)phenylsulfonamido)ethoxy)ethoxy)ethoxy)ethyl)octanediamide]
rat NHE-3 Average pIC50: 6 to 7

N=C(N)Nc1nc(-c2cccc(N3CCN(CCC(=O)O)CC3)c2)c2cc(Cl)ccc2n1 [Example 64, 3-(4-(3-(6-chloro-2-(diaminomethyleneamino)quinazolin-4-yl)phenyl)piperazin-1-yl)propanoic acid]
rat NHE-3 Average pIC50: 5 to 6

NC(N)=NCCCN1CCN(c2cccc(-c3nc(N=C(N)N)nc4ccc(Cl)cc34)c2)CC1 [Example 67, 2-(4-(3-(4-(3-guanidinopropyl)piperazin-1-yl)phenyl)-6-chloroquinazolin-2-yl)guanidine]
rat NHE-3 Average pIC50: 6 to 7

C/C(=C\c1cc(F)c(Oc2ccc(S(=O)(=O)NCCOCCOCCOCCN)cc2)c(F)c1)C(=O)N=C(N)N [Example 45, (E)-3-(4-(4-(N-(2-(2-(2-(2-aminoethoxy)ethoxy)ethoxy)ethyl)sulfamoyl)phenoxy)-3,5-difluorophenyl)-N-(diaminomethylene)-2-methylacrylamide]
rat NHE-3 Average pIC50: 6 to 7

CN1Cc2c(Cl)cc(Cl)cc2C(c2cccc(S(=O)(=O)NCCOCCOCCOCCn3cc(COCc4cn(CCOCCOCCOCCNS(=O)(=O)c5cccc(C6CN(C)Cc7c(Cl)cc(Cl)cc76)c5)nn4)nn3)c2)C1 (stereo not shown) [Example 81, N,N′-(2,2′-(2,2-(2,2′-(2,2′-(4,4′-oxybis(methylene)bis(1H-1,2,3-triazole-4,1-diyl))bis(ethane-2,1-diyl))bis(oxy)bis(ethane-2,1-diyl))bis(oxy)bis(ethane-2,1-diyl))bis(oxy)bis(ethane-2,1-diyl))bis(3-(6,8-dichloro-2-methyl-1,2,3,4-tetrahydroisoquinolin-4-yl)benzenesulfonamide)]
IC50: < 0.1 µM

CN1Cc2c(Cl)cc(Cl)cc2[C@H](c2ccc(S(=O)(=O)NCCOCCOCCOCCNC(=O)NCCCCNC(=O)NCCOCCOCCOCCNS(=O)(=O)c3ccc([C@@H]4CN(C)Cc5c(Cl)cc(Cl)cc54)cc3)cc2)C1 (single isomer, unassigned) [Example 251, (S or R)—N,N′-(13,20-dioxo-3,6,9,24,27,30-hexaoxa-12,14,19,21-tetraazadotriacontane-1,32-diyl)bis(4-((S or R)-6,8-dichloro-2-methyl-1,2,3,4-tetrahydroisoquinolin-4-yl)benzenesulfonamide)]
IC50: < 0.1 µM

C/C(=C\c1cc(F)c(Oc2ccc(S(=O)(=O)NCCOCCOCCOCCNC(=O)NCCOCCOCCOCCNS(=O)(=O)c3ccc(Oc4c(F)cc(/C=C(\C)C(=O)N=C(N)N)cc4F)cc3)cc2)c(F)c1)C(=O)N=C(N)N [Example 46, N,N′-(13-oxo-3,6,9,17,20,23-hexaoxa-12,14-diazapentacosane-1,25-diyl)bis[(E)-N-(diaminomethylene)-3-(3,5-difluoro-4-(4-sulfamoylphenoxy)phenyl)-2-methylacrylamide]]
IC50: 0.1 to 1 µM

N=C(N)Nc1nc(-c2cccc(N3CCN(CCCN)CC3)c2)c2cc(Cl)ccc2n1 [Example 65, 1-(4-(3-(4-(3-aminopropyl)piperazin-1-yl)phenyl)-6-chloroquinazolin-2-yl)guanidine]
rat NHE-3 Average pIC50: 6 to 7

C/C(=C\c1cc(F)c(Oc2ccc(S(=O)(=O)NCCOCCOCCOCCNC(=O)CCOCCOCCOCCOCCOCCOCCOCCOCCOCCC(=O)NCCOCCOCCOCCNS(=O)(=O)c3ccc(Oc4c(F)cc(/C=C(\C)C(=O)N=C(N)N)cc4F)cc3)cc2)c(F)c1)C(=O)N=C(N)N [Example 102, N1,N31-bis(2-(2-(2-(2-(4-(4-((E)-3 (diaminomethyleneamino)-2-methyl-3-oxoprop-1-enyl)-2,6-difluorophenoxy)phenylsulfonamido)ethoxy)ethoxy)ethoxy)ethyl)-4,7,10,13,16,19,22,25,28-nonaoxahentriacontane-1,31-diamide]
IC50: 0.1 to 1 µM

CN1Cc2c(Cl)cc(Cl)cc2C(c2ccc(S(=O)(=O)NCCOCCOCCOCCNC(=O)CCOCCOCCOCCOCCOCCOCCOCCOCCOCCC(=O)NCCOCCOCCOCCNS(=O)(=O)c3ccc(C4CN(C)Cc5c(Cl)cc(Cl)cc54)cc3)cc2)C1 (stereo not shown) [Example 98, N1,N31-bis(2-(2-(2-(2-(4-(6,8-dichloro-2-methyl-1,2,3,4-tetrahydroisoquinolin-4-yl)phenylsulfonamido)ethoxy)ethoxy)ethoxy)ethyl)-4,7,10,13,16,19,22,25,28-nonaoxahentriacontane-1,31-diamide]
rat NHE-3 Average pIC50: >7

CN1Cc2c(Cl)cc(Cl)cc2C(c2ccc(S(=O)(=O)NCCOCCOCCNC(=O)[C@H](O)[C@@H](O)C(=O)NCCOCCOCCNS(=O)(=O)c3ccc(C4CN(C)Cc5c(Cl)cc(Cl)cc54)cc3)cc2)C1 (stereo partly drawn) [Example 207, (2R,3R)—N1,N4-bis(2-(2-(2-(4-(6,8-dichloro-2-methyl-1,2,3,4-tetrahydroisoquinolin-4-yl)phenylsulfonamido)ethoxy)ethoxy)ethyl)-2,3-dihydroxysuccinamide]
rat NHE-3 Average pIC50: 6 to 7

CN1Cc2c(Cl)cc(Cl)cc2C(c2ccc(S(=O)(=O)NCCOCCOCCNC(=O)C(=O)NCCOCCOCCNS(=O)(=O)c3ccc(C4CN(C)Cc5c(Cl)cc(Cl)cc54)cc3)cc2)C1 (stereo not shown) [Example 175, N1,N2-bis(2-(2-(2-(4-(6,8-dichloro-2-methyl-1,2,3,4-tetrahydroisoquinolin-4-yl)phenylsulfonamido)ethoxy)ethoxy)ethyl)oxalamide]
rat NHE-3 Average pIC50: <5.0

N=C(N)N1CCN(c2ccc(-c3nc(N=C(N)N)nc4ccc(Cl)cc34)cc2)CC1 [Example 66, 4-(4-(6-chloro-2-(diaminomethyleneamino)quinazolin-4-yl)phenyl)piperazine-1-carboximidamide]
rat NHE-3 Average pIC50: 6 to 7

CN1Cc2c(Cl)cc(Cl)cc2C(c2cccc(S(=O)(=O)NCCOCCOCCOCCNS(=O)(=O)c3cccc(S(=O)(=O)NCCOCCOCCOCCNS(=O)(=O)c4cccc(C5CN(C)Cc6c(Cl)cc(Cl)cc65)c4)c3)c2)C1 (stereo not shown) [Example 219, N1,N3-bis(2-(2-(2-(2-(3-(6,8-dichloro-2-methyl-1,2,3,4-tetrahydroisoquinolin-4-yl)phenylsulfonamido)ethoxy)ethoxy)ethoxy)ethyl)benzene-1,3-disulfonamide]
IC50: 1 to 10 µM

Nc1cccc(C2CN(CCOCCOCCOCCN3Cc4c(Cl)cc(Cl)cc4C(c4cccc(N)c4)C3)Cc3c(Cl)cc(Cl)cc32)c1 (stereo not shown) [Example 171, 3,3′-(2,2′-(2,2′-(2,2′-oxybis(ethane-2,1-diyl)bis(oxy))bis(ethane-2,1-diyl))bis(6,8-dichloro-1,2,3,4-tetrahydroisoquinoline-4,2-diyl))dianiline]
rat NHE-3 Average pIC50: <5.0

CN1Cc2c(Cl)cc(Cl)cc2C(c2ccc(S(=O)(=O)NCCOCCOCCOCCNC(=O)NCCOCCOCCOCCNS(=O)(=O)c3ccc(C4CN(C)Cc5c(Cl)cc(Cl)cc54)cc3)cc2)C1 (stereo not shown) [Example 103, N,N′-(13-oxo-3,6,9,17,20,23-hexaoxa-12,14-diazapentacosane-1,25-diyl)bis(4-(6,8-dichloro-2-methyl-1,2,3,4-tetrahydroisoquinolin-4-yl)benzenesulfonamide)]
rat NHE-3 Average pIC50: >7

C/C(=C\c1cc(F)c(Oc2ccc(S(=O)(=O)NCCOCCOCCOCCOCCOCCOCCNC(=O)[C@H](O)[C@@H](O)C(=O)NCCOCCOCCOCCOCCOCCOCCNS(=O)(=O)c3ccc(Oc4c(F)cc(/C=C(\C)C(=O)N=C(N)N)cc4F)cc3)cc2)c(F)c1)C(=O)N=C(N)N [Example 210, (2R,3R)—N1,N4-bis(20-(4-(4-((E)-3-(diaminomethyleneamino)-2-methyl-3-oxoprop-1-enyl)-2,6-difluorophenoxy)phenylsulfonamido)-3,6,9,12,15,18-hexaoxaicosyl)-2,3-dihydroxysuccinamide]
rat NHE-3 Average pIC50: 6 to 7

CN1Cc2c(Cl)cc(Cl)cc2C(c2cccc(S(=O)(=O)NCCOCCOCCNCc3ccc(CNCCOCCOCCNS(=O)(=O)c4cccc(C5CN(C)Cc6c(Cl)cc(Cl)cc65)c4)cc3)c2)C1 (stereo not shown) [Example 206, N,N′-(2,2′-(2,2′-(2,2′-(1,4-phenylenebis(methylene))bis(azanediyl)bis(ethane-2,1-diyl))bis(oxy)bis(ethane-2,1-diyl))bis(oxy)bis(ethane-2,1-diyl))bis(3-(6,8-dichloro-2-methyl-1,2,3,4-tetrahydroisoquinolin-4-yl)benzenesulfonamide)]
rat NHE-3 Average pIC50: >7
